Publication PMC12584752, “Covalent fragment screening to inhibit the E3 ligase activity of bacterial NEL enzymes SspH1 and SspH2” (RSC Chemical Biology, 2025)

Key:
Conditions in all cases: live HEK293T cells, 50 μM, four hours
[1] = biological target: T1, SspH2 expressed in HEK293T cells (Salmonella typhimurium, UniProt D0ZPH9); test: In cellulo target engagement, IA-DTB chemoproteomics; type: cell-based
T1 construct: SspH1 (aa 1–700) and SspH2 (aa 1–786) genes were cloned separately; expressed in transfected cells; host or cells: HEK293T
T1 sequence (D0ZPH9 1-786): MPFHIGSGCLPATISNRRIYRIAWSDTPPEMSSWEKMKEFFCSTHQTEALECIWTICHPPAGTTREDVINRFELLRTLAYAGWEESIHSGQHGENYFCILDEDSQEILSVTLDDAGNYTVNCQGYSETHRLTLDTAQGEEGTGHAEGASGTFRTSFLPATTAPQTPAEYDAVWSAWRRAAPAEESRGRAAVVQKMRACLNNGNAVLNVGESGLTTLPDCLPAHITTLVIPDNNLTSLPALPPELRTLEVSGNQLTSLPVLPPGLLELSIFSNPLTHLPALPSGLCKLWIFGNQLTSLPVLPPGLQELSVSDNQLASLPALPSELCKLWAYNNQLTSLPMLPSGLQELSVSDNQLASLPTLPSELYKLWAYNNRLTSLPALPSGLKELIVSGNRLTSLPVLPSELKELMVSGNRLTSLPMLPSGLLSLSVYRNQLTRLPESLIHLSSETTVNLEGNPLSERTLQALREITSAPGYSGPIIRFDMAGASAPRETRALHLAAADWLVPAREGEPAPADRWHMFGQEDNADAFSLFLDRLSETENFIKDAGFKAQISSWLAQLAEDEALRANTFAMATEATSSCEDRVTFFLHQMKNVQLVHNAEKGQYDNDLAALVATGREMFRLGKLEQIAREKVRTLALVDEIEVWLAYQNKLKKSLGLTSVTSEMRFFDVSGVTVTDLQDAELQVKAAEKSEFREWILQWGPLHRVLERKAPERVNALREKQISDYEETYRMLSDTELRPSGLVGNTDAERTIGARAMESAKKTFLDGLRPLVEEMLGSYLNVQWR
Procedure: (§1) Fig. 5 Characterisation of protein interactions by compounds 6 and 7. (A) SspH1 and SspH2 catalytic cysteine labelling with compound 6 (100–3.125 μM, 4 hours) in HEK293T lysate spiked with recombinant SspH1 and SspH2. Data are presented as mean ± SEM, n = 4. The curves were fitted with GraphPad Prism 10 using four parameter nonlinear regression with baseline correction to DMSO-treated samples. (B) SspH1 and SspH2 catalytic cysteine labelling with compound 7 (100–3.125 μM, 4 hours) in HEK293T lysate spiked with recombinant SspH1 and SspH2. Data are presented as mean ± SEM, n = 4. The curves were fitted with GraphPad Prism 10 using four parameter nonlinear regression with baseline correction to DMSO-treated samples. (C) Volcano plot of IA-DTB competition in SspH1 expressing HEK293T cells treated with compound 6 (50 μM, 4 hours). (D) Volcano plot of IA-DTB competition in SspH2 expressing HEK293T cells treated with compound 6 (50 μM, 4 hours). Data is shown as compared to DMSO treated samples, with competed peptides in the upper left-hand quadrant. […]
(§2) All cells were grown in DMEM media (Gibco, 41966-029) supplemented with FBS (ThermoFisher, A5256701) and Pen/Strep (Gibco, 15140-122) at 37 °C with 5% CO2. […] Protein concentrations were measured using a Rapid BCA Gold Protein Assay Kit (Thermo Scientific, A53226) and diluted to 1 mg mL^−1 with lysis buffer. […]

[2] = biological target: T2, SspH1 expressed in HEK293T cells (Salmonella typhimurium, UniProt D0ZVG2); test: as above; type: cell-based
T2 construct: SspH1 (aa 1–700) and SspH2 (aa 1–786) genes were cloned separately; expressed in transfected cells; host or cells: HEK293T
T2 sequence (D0ZVG2 whole entry, the tested form may be a part): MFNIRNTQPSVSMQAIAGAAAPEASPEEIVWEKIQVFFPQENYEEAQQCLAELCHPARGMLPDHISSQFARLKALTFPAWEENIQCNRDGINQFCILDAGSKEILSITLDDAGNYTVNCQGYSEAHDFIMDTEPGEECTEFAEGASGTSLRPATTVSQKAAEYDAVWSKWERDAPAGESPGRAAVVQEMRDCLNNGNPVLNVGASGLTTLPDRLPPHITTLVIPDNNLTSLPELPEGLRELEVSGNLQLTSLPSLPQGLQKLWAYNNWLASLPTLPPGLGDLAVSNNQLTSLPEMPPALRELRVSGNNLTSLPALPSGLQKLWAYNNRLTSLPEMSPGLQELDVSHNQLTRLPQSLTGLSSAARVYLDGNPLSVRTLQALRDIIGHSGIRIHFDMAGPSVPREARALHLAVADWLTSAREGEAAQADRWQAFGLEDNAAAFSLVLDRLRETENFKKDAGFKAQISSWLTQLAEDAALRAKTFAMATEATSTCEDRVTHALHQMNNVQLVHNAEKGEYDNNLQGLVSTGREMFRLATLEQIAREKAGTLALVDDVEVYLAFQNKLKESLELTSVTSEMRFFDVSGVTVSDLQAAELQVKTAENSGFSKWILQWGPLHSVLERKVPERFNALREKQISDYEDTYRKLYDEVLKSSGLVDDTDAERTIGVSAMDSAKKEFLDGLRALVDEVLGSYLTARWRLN
Procedure: as §1, §2

[3] = system: mammalian proteins in HEK293T cells; test: In cellulo IA-DTB chemoproteomics, off-target engagement; type: cell-based, human
Procedure: as §1, §2

## Cc1cc(-c2nc3ccccc3n2C2CCN(C(=O)CCl)CC2)cc(C)c1O.Cl [compound 6]
[1]
  competition of IA-DTB labelling of C580 peptide of SspH2: strong competition
[2]
  competition of IA-DTB labelling of catalytic cysteine C492 peptide of SspH1: strong competition
[3]
  engagement of catalytic cysteines-containing peptides of HECT or RBR E3 ligases, or DUBs: none
  engagement of mammalian proteins: engagement of multiple mammalian proteins
